Values after ≈ are worked out from the molar mass of the structure shown. Like-named read-outs stand apart in the source and are kept apart here.
Legend:
[1] = tested on: Klebsiella pneumoniae D 11750/08
Candida tropicalis 156 = test: Antifungal microdilution broth MIC, C. tropicalis; assay type: cell-based
Candida glabrata 20/I = test: Antifungal microdilution broth MIC, C. glabrata; assay type: cell-based; settings: Nakaseomyces glabratus, 48 h incubation, read-out: MIC CG 48 h
[2] = tested on: Staphylococcus epidermidis H 6966/08; test: Antibacterial microdilution broth MIC, S. epidermidis; assay type: cell-based; settings: Staphylococcus epidermidis, H6966/08
[3] = tested on: Mycobacterium tuberculosis 331/88 (H37Rv); test: In vitro antimycobacterial MIC, M. tuberculosis; assay type: cell-based
[4] = tested on: Mycobacterium avium 330/88; test: In vitro antimycobacterial MIC, M. avium; assay type: cell-based
M. kansasii 6509/96 = test: In vitro antimycobacterial MIC, M. kansasii clinical isolate; assay type: cell-based; settings: Mycobacterium kansasii
M. tuberculosis and NTM = test: Antimycobacterial activity, panel; assay type: cell-based; settings: Mycobacterium tuberculosis; range over all four mycobacterial strains and incubation times; read-out: MIC, M. tuberculosis and NTM
[5] = tested on: Mycobacterium kansasii 235/80; test: In vitro antimycobacterial MIC, M. kansasii 235/80; assay type: cell-based
[6] = tested on: Trichophyton interdigitale 445; test: Antifungal microdilution broth MIC, T. interdigitale; assay type: cell-based
[7] = tested on: Aspergillus fumigatus 231; test: Antifungal microdilution broth MIC, A. fumigatus; assay type: cell-based; settings: Aspergillus fumigatus, 231; 48 h incubation; read-out: MIC AF 48 h
Trichosporon asahii 1188 = test: Antifungal microdilution broth MIC, T. asahii; assay type: cell-based
[8] = tested on: Pseudomonas aeruginosa CCM 1961; test: Antibacterial microdilution broth MIC, P. aeruginosa; assay type: cell-based; settings: Pseudomonas aeruginosa, CCM1961; 48 h incubation; read-out: MIC PA 48 h
[9] = tested on: Escherichia coli CCM 4517; test: Antibacterial microdilution broth MIC, E. coli; assay type: cell-based; settings: Escherichia coli, CCM4517; 48 h incubation; read-out: MIC EC 48 h
[10] = tested on: ESBL-positive Klebsiella pneumoniae J 14368/08
[11] = tested on: Staphylococcus aureus CCM 4516/08; test: Antibacterial microdilution broth MIC, S. aureus; assay type: cell-based; settings: Staphylococcus aureus
[12] = tested on: Enterococcus faecalis J 14365/08; test: Antibacterial microdilution broth MIC, E. faecalis; assay type: cell-based; settings: Enterococcus faecalis, J14365/08; 48 h incubation; read-out: MIC EF 48 h
[13] = tested on: Candida albicans ATCC 44859; test: Antifungal microdilution broth MIC, C. albicans; assay type: cell-based
[14] = tested on: Lichtheimia corymbifera 272; test: Antifungal microdilution broth MIC, L. corymbifera; assay type: cell-based; settings: Lichtheimia corymbifera, 272; 48 h incubation; read-out: MIC LC 48 h
Candida krusei E28 = test: Antifungal microdilution broth MIC, C. krusei; assay type: cell-based; settings: Pichia kudriavzevii
[15] = tested on: yeasts (Candida sp., T. asahii); test: Antifungal activity against yeasts; assay type: cell-based; settings: read-out: MIC for yeasts
[16] = 48 h incubation, read-out: MIC SE 48 h
[17] = 336 h, 14 d incubation, read-out: MIC Mtb. 331/88 14 d
[18] = 504 h, 21 d incubation, read-out: MIC Mtb. 331/88 21 d
[19] = 330/88, 336 h, 14 d incubation, read-out: MIC M. avium 330/88 14 d
[20] = 330/88, 504 h, 21 d incubation, read-out: MIC M. avium 330/88 21 d
[21] = 6509/96, 168 h, 7 d incubation, read-out: MIC M. kansasii 6509/96 7 d
[22] = 6509/96, 336 h, 14 d incubation, read-out: MIC M. kansasii 6509/96 14 d
[23] = 6509/96, 504 h, 21 d incubation, read-out: MIC M. kansasii 6509/96 21 d
[24] = 235/80, 168 h, 7 d incubation, read-out: MIC M. kansasii 235/80 7 d
[25] = 235/80, 336 h, 14 d incubation, read-out: MIC M. kansasii 235/80 14 d
[26] = 235/80, 504 h, 21 d incubation, read-out: MIC M. kansasii 235/80 21 d
[27] = CCM4516, 24 h, read-out: MIC SA 24 h
[28] = CCM4516, 48 h, read-out: MIC SA 48 h
[29] = ATCC44859, 48 h incubation, read-out: MIC CA 48 h
[30] = Candida tropicalis, 156, 24 h, read-out: MIC CT 24 h
[31] = Candida tropicalis, 156, 48 h, read-out: MIC CT 48 h
[32] = Trichophyton interdigitale, 445, 72 h, read-out: MIC TI 72 h
[33] = Trichophyton interdigitale, 445, 120 h, read-out: MIC TI 120 h
[34] = Trichosporon asahii, 1188, 24 h, read-out: MIC TA 24 h
[35] = Trichosporon asahii, 1188, 48 h, read-out: MIC TA 48 h
[36] = E28, 24 h, read-out: MIC CK 24 h
[37] = E28, 48 h, read-out: MIC CK 48 h

With `O=[N+]([O-])c1ccc(C=Nc2ccc(S(=O)(=O)Nc3ncccn3)cc2)o1` [Compound 2q, 4-{[(5-Nitrofuran-2-yl)methylene]amino}-N-(pyrimidin-2-yl)benzenesulfonamide] the “MIC KP 24 h” value [1] was 500 µM (≈ 187 µg/mL), the “MIC KP 48 h” value [1] was 500 µM (≈ 187 µg/mL) and the MIC (Candida tropicalis 156; Candida tropicalis, 156, 48 h incubation, read-out: MIC CT 48 h) was 250 µM (≈ 93.3 µg/mL). For the same molecule, the MIC (Candida glabrata 20/I) was 250 µM (≈ 93.3 µg/mL), the MIC [2, 16] was 31.2 µM (≈ 11.7 µg/mL) and the MIC ([2]; incubation time not given, read-out: MIC for S. epidermidis) was 31.2 µM (≈ 11.7 µg/mL). For the same molecule, the MIC [3, 17] was 125 µM (≈ 46.7 µg/mL), the MIC [3, 18] was 125 µM (≈ 46.7 µg/mL) and the MIC [4, 19] was 500 µM (≈ 187 µg/mL). It also gave an MIC [4, 20] of 500 µM (≈ 187 µg/mL), an MIC (M. kansasii 6509/96; [21]) of 62.5 µM (≈ 23.3 µg/mL) and an MIC (M. kansasii 6509/96; [22]) of 62.5 µM (≈ 23.3 µg/mL). It also gave an MIC (M. kansasii 6509/96; [23]) of 125 µM (≈ 46.7 µg/mL), an MIC (M. tuberculosis and NTM) of no less than 62.5 µM and an MIC [5, 24] of 125 µM (≈ 46.7 µg/mL). It also gave an MIC [5, 25] of 250 µM (≈ 93.3 µg/mL), an MIC [5, 26] of 250 µM (≈ 93.3 µg/mL) and an MIC ([6]; Trichophyton interdigitale, 445, 72 h incubation, read-out: MIC TI 72 h) of 250 µM (≈ 93.3 µg/mL). The MIC ([6]; Trichophyton interdigitale, 445, 120 h incubation, read-out: MIC TI 120 h) was 250 µM (≈ 93.3 µg/mL), the MIC [7] was 500 µM (≈ 187 µg/mL) and the MIC (Trichosporon asahii 1188; Trichosporon asahii, 1188, 48 h incubation, read-out: MIC TA 48 h) was 500 µM (≈ 187 µg/mL). The MIC [8] was 250 µM (≈ 93.3 µg/mL), the MIC [9] was greater than 500 µM and the “MIC KP-E 24 h” value [10] was 500 µM (≈ 187 µg/mL). The “MIC KP-E 48 h” value [10] was 500 µM (≈ 187 µg/mL), the MIC [11, 27] was 125 µM (≈ 46.7 µg/mL) and the MIC [11, 28] was 125 µM (≈ 46.7 µg/mL). It also gave an MIC [12] greater than 500 µM, an MIC [13, 29] of 250 µM (≈ 93.3 µg/mL) and an MIC [14] greater than 500 µM. It also gave an MIC (Candida krusei E28; E28, 48 h incubation, read-out: MIC CK 48 h) of 250 µM (≈ 93.3 µg/mL).

`O=S(=O)(Nc1ncccn1)c1ccc(N=Cc2cc(Cl)cc(Br)c2O)cc1` [Compound 2n, 4-[(3-Bromo-5-chloro-2-hydroxybenzylidene)amino]-N-(pyrimidin-2-yl)benzenesulfonamide] was tested, and the “MIC KP 24 h” value [1] was greater than 500 µM, the “MIC KP 48 h” value [1] was greater than 500 µM and the MIC (Candida tropicalis 156; [30]) was 62.5 µM (≈ 29.2 µg/mL). It also gave an MIC (Candida tropicalis 156; [31]) of 62.5 µM (≈ 29.2 µg/mL), an MIC (Candida glabrata 20/I) of 31.2 µM (≈ 14.6 µg/mL) and an MIC [2, 16] of 31.2 µM (≈ 14.6 µg/mL). The MIC [3, 17] was 125 µM (≈ 58.5 µg/mL), the MIC [3, 18] was 125 µM (≈ 58.5 µg/mL) and the MIC [4, 19] was 250 µM (≈ 117 µg/mL). The MIC [4, 20] was 500 µM (≈ 234 µg/mL), the MIC (M. kansasii 6509/96; [21]) was 62.5 µM (≈ 29.2 µg/mL) and the MIC (M. kansasii 6509/96; [22]) was 125 µM (≈ 58.5 µg/mL). The MIC (M. kansasii 6509/96; [23]) was 125 µM (≈ 58.5 µg/mL), the MIC [5, 24] was 125 µM (≈ 58.5 µg/mL) and the MIC [5, 25] was 125 µM (≈ 58.5 µg/mL). It also gave an MIC [5, 26] of 250 µM (≈ 117 µg/mL), an MIC [6, 32] of 62.5 µM (≈ 29.2 µg/mL) and an MIC [6, 33] of 62.5 µM (≈ 29.2 µg/mL). For the same molecule, the MIC [7] was 250 µM (≈ 117 µg/mL), the MIC (Trichosporon asahii 1188; [34]) was 62.5 µM (≈ 29.2 µg/mL) and the MIC (Trichosporon asahii 1188; [35]) was 62.5 µM (≈ 29.2 µg/mL). For the same molecule, the MIC [8] was greater than 500 µM, the MIC [9] was 500 µM (≈ 234 µg/mL) and the “MIC KP-E 24 h” value [10] was 500 µM (≈ 234 µg/mL). The “MIC KP-E 48 h” value [10] was 500 µM (≈ 234 µg/mL), the MIC ([11]; CCM4516, 48 h incubation, read-out: MIC SA 48 h) was 31.2 µM (≈ 14.6 µg/mL) and the MIC [12] was greater than 500 µM. It also gave an MIC [13, 29] of 31.2 µM (≈ 14.6 µg/mL), an MIC [14] of 500 µM (≈ 234 µg/mL) and an MIC [15] of 31.2 to 125 µM (≈ 14.6 to 58.5 µg/mL). It also gave an MIC (Candida krusei E28; [36]) of 62.5 µM (≈ 29.2 µg/mL) and an MIC (Candida krusei E28; [37]) of 62.5 µM (≈ 29.2 µg/mL).

`O=S(=O)(Nc1ncccn1)c1ccc(N=Cc2cc(Cl)cc(Cl)c2O)cc1` [Compound 2m, 4-[(3,5-Dichloro-2-hydroxybenzylidene)amino]-N-(pyrimidin-2-yl)benzenesulfonamide] was tested, and the “MIC KP 24 h” value [1] was greater than 500 µM, the “MIC KP 48 h” value [1] was greater than 500 µM and the MIC (Candida tropicalis 156; [30]) was 125 µM (≈ 52.9 µg/mL). The MIC (Candida tropicalis 156; [31]) was 125 µM (≈ 52.9 µg/mL), the MIC (Candida glabrata 20/I) was 31.2 µM (≈ 13.2 µg/mL) and the MIC [2, 16] was 31.2 µM (≈ 13.2 µg/mL). For the same molecule, the MIC [3, 17] was 125 µM (≈ 52.9 µg/mL), the MIC [3, 18] was 125 µM (≈ 52.9 µg/mL) and the MIC [4, 19] was 250 µM (≈ 106 µg/mL). For the same molecule, the MIC [4, 20] was 500 µM (≈ 212 µg/mL), the MIC (M. kansasii 6509/96; [21]) was 62.5 µM (≈ 26.5 µg/mL) and the MIC (M. kansasii 6509/96; [22]) was 125 µM (≈ 52.9 µg/mL). The MIC (M. kansasii 6509/96; [23]) was 250 µM (≈ 106 µg/mL), the MIC [5, 24] was 125 µM (≈ 52.9 µg/mL) and the MIC [5, 25] was 250 µM (≈ 106 µg/mL). The MIC [5, 26] was 500 µM (≈ 212 µg/mL), the MIC [6, 32] was 125 µM (≈ 52.9 µg/mL) and the MIC [6, 33] was 125 µM (≈ 52.9 µg/mL). The MIC [7] was 250 µM (≈ 106 µg/mL), the MIC (Trichosporon asahii 1188; [34]) was 62.5 µM (≈ 26.5 µg/mL) and the MIC (Trichosporon asahii 1188; [35]) was 62.5 µM (≈ 26.5 µg/mL). The MIC [8] was greater than 500 µM, the MIC [9] was greater than 500 µM and the “MIC KP-E 24 h” value [10] was 500 µM (≈ 212 µg/mL). The “MIC KP-E 48 h” value [10] was 500 µM (≈ 212 µg/mL), the MIC [11, 27] was 62.5 µM (≈ 26.5 µg/mL) and the MIC [11, 28] was 62.5 µM (≈ 26.5 µg/mL). It also gave an MIC [12] greater than 500 µM, an MIC ([13]; ATCC44859, 24 h, read-out: MIC CA 24 h) of 62.5 µM (≈ 26.5 µg/mL) and an MIC ([13]; ATCC44859, 48 h, read-out: MIC CA 48 h) of 62.5 µM (≈ 26.5 µg/mL). The MIC [14] was 500 µM (≈ 212 µg/mL), the MIC [15] was 31.2 to 125 µM (≈ 13.2 to 52.9 µg/mL) and the MIC (Candida krusei E28; [36]) was 62.5 µM (≈ 26.5 µg/mL). The MIC (Candida krusei E28; [37]) was 62.5 µM (≈ 26.5 µg/mL).

— PMC6151383 (Molecules : A Journal of Synthetic Chemistry and Natural …, 2017)
